Laboratory results: ChEMBL document CHEMBL1201862, “PubChem BioAssay data set” (2004)
The source made the active and inactive calls.

How the values were obtained:
Format in all cases: functional
[1] = system: HeLa; assay: Cytotoxicity counterscreen assay for transcriptional activators of heat shock protein 70 (Hsp70). [Related pubchem assays: 1203, 1252 ]; settings: Homo sapiens;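 also: cells exposed to compound for 16 hours before readout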
[2] = viability of PTEN-deleted HCT116 cells – cell-based, HCT116 PTEN knockout, dose response (AID 1047);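 also: HCT116 colon tumor cells with PTEN knocked out; cells exposed to compound for 60 hours before readout; potency for loss of cell viability measured by luminescence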
[3] = viability of HCT116 lacking mutant beta-catenin – cell-based, human colon tumor, dose response (AID 1045);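 also: HCT116 colon tumor cells with beta catenin knocked out; cells exposed to compound for 60 hours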
[4] = molecular target: T1, Replicative DNA helicase DnaB (Mycobacterium tuberculosis, UniProt P9WMR3); assay: DnaB intein splicing inhibitors, dose response, biochemical, cell-free fluorescence (AID 449749)
T1 sequence (P9WMR3 whole entry): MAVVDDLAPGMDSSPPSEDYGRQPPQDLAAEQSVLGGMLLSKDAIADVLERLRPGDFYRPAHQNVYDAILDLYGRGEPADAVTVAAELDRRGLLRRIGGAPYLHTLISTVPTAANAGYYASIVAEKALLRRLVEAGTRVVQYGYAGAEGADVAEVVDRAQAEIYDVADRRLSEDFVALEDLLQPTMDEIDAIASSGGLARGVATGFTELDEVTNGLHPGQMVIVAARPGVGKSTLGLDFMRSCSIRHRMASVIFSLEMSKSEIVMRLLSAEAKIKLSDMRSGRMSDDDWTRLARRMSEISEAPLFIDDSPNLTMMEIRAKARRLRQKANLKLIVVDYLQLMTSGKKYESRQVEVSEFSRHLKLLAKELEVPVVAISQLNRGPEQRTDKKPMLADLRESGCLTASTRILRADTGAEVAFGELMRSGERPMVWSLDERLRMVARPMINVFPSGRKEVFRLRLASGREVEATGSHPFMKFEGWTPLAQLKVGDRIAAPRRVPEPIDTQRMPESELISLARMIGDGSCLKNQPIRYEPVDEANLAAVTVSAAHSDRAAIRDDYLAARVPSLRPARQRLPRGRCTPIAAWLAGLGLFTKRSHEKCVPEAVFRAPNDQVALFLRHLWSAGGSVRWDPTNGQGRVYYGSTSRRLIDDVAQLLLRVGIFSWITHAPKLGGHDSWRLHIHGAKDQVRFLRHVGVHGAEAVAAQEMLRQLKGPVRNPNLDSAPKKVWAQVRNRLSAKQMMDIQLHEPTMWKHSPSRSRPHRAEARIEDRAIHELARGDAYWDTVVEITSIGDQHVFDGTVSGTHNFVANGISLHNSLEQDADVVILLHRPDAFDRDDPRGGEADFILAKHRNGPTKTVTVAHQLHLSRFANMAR

[5] = molecular target: T2, High affinity choline transporter 1 (Homo sapiens, UniProt Q9GZV3); assay: human choline transporter blockers, potency – cell-based, 5-point CRC, membrane potential dye, dose response (AID 504840)
T2 sequence (Q9GZV3 whole entry): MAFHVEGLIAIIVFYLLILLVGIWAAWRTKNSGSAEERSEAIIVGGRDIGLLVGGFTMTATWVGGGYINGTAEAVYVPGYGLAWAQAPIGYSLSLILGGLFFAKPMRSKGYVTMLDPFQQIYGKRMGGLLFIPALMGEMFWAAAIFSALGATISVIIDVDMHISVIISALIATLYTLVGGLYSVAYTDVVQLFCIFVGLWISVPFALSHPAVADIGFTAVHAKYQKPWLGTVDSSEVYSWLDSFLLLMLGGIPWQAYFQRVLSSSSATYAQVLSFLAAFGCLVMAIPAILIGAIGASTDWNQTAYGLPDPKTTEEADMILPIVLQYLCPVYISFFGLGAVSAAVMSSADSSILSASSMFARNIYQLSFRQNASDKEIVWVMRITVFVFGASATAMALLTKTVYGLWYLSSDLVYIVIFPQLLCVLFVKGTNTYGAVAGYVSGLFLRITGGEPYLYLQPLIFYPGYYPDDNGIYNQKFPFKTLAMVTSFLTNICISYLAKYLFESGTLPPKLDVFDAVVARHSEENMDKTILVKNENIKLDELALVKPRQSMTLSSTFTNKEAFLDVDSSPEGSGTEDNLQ

[6] = molecular target: T3, Protein RecA (Mycobacterium tuberculosis, UniProt P9WHJ3); assay: Fluorescence Cell-Free Homogeneous Dose Retest to Identify Inhibitors of RecA-Intein Splicing Activity. [Related pubchem assays (depositor defined):AID2097, AID2223, AID489010, AID492950]
T3 sequence (P9WHJ3 whole entry): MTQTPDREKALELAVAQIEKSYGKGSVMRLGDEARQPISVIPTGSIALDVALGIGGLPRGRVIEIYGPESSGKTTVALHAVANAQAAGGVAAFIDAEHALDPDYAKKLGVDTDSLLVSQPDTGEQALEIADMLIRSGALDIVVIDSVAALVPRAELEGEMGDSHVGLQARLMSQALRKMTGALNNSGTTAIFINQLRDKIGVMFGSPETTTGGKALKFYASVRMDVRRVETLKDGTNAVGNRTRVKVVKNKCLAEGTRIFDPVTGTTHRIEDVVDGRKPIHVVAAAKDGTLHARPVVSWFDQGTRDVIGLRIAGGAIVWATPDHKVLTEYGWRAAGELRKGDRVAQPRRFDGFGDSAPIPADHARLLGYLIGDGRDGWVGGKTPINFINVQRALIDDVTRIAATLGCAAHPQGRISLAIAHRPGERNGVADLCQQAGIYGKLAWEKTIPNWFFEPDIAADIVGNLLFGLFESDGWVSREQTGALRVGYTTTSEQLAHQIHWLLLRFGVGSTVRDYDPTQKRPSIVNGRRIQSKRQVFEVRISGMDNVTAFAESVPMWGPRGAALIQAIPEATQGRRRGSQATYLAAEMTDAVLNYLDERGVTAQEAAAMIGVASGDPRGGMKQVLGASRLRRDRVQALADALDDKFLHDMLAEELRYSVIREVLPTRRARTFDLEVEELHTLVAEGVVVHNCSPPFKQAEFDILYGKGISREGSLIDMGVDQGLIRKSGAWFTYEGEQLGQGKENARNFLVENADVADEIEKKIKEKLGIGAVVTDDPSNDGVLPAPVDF

[7] = antiviral protection against BTV-induced cell death – arbovirus, BSR cells, confirmation (AID 1250);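 also: protection from viral cytopathic effect measured as cell viability by ATP luminescence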
[8] = system: HEK293; assay: Fluorescence-based counterscreen for potentiators or agonists of NPY-Y2: cell-based high-throughput dose response assay to identify inhibitors of cyclic nucleotide gated ion channel (CNGC) activity. In this assay, the parental HEK293 cell line transfected with a cyclic-nucleotide gated ion channel (CNGC)-based cAMP sensor is used to measure inhibition of isoproterenol-induced CNGC activity by test compound.; settings: Homo sapiens;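 also: stimulus is 1 µM isoproterenol at EC100 plus PDE inhibitor Ro 20-1724 at 25 µM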
[9] = molecular target: T4, Neuropeptide Y receptor type 2 (Homo sapiens, UniProt P49146); assay: Fluorescence-based cell-based high-throughput dose response assay for agonists of NPY-Y2. [Related pubchem assays: 1703 (Screening assay (CNGC inhibitors).), 1359 (Screening assay (NPY-Y2 potentiators or agonists).), 1304 (Screening assay (NPY-Y1 potentiators or agonists).), 1710 (Screening assay (NPY-Y2 agonists).), 1791 (Summary AID.)]
T4 sequence (P49146 whole entry): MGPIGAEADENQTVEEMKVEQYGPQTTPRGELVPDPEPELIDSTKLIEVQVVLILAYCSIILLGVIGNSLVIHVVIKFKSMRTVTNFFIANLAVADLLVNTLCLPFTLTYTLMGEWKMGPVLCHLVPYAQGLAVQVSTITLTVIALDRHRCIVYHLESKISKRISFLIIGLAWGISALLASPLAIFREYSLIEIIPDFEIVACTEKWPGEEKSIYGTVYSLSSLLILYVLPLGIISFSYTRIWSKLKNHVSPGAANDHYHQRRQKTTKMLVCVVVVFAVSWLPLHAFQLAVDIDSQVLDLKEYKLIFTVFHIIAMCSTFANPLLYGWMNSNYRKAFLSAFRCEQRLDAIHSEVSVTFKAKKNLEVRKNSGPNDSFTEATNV

[10] = molecular target: T5, Neuropeptide Y receptor type 1 (Homo sapiens, UniProt P25929); assay: Fluorescence-based counterscreen for agonists of NPY-Y2: cell-based high-throughput dose response assay for agonists of NPY-Y1.
T5 sequence (P25929 whole entry): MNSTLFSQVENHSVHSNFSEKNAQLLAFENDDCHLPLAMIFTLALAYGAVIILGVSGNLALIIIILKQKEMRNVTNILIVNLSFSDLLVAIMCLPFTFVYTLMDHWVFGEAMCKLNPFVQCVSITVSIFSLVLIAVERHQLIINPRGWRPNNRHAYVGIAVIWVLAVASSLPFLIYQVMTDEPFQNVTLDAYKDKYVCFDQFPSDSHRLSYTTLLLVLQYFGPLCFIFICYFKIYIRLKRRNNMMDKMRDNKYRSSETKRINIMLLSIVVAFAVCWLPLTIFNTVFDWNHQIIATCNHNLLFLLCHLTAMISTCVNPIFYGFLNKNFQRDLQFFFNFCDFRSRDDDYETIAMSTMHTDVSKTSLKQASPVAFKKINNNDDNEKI

[11] = molecular target: T6, Bcl-2-like protein 10 (Homo sapiens, UniProt Q9HD36); assay: Concentration-response of Bcl-B inhibitors by biochemical FP with TR3 (AID 1243)
T6 sequence (Q9HD36 whole entry): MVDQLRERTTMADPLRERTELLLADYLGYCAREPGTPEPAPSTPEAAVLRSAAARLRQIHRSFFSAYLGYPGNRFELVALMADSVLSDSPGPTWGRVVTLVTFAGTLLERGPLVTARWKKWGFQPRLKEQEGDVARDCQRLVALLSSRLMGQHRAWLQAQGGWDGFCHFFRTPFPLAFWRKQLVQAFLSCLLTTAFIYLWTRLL

Cc1cc(C(=O)Cn2ncc(Cl)c(Cl)c2=O)c(C)n1CC(F)(F)F
CC50 [1]: > 11 µM (not active) | EC50 [2]: 3.03 µM (active) | EC50 [3]: 2.06 µM (active) | AC50 [4]: 3.01 µM (active) | IC50 [5]: 20.9 µM (active) | EC50 [6]: 2.72 µM (active)

CN(Cc1ccccc1NC(=O)c1ccc(S(=O)(=O)N(C)C)cc1)C1CCCCC1
IC50 [7]: 29.9 µM (active)

Cc1ccc(Cl)cc1NC(=O)c1cc2ccccc2cc1O
EC50 [8]: > 35.4 µM (not active) | EC50 [9]: 15.1 µM (not active) | EC50 [10]: 17.1 µM (not active)

O=C(O)c1cccc(-c2ccc(/C=N/Nc3ccc([N+](=O)[O-])cn3)o2)c1
EC50 [11]: 9.64 µM (active)
